Laboratory results as given in ChEMBL document CHEMBL4196110, “Covalent Inhibitors of the TEC Family of Kinases and Their Methods of Use” (ACS Med Chem Lett, 2018).

Biological target: Tyrosine-protein kinase BTK (Homo sapiens, UniProt Q06187)
Assay: Inhibition of BTK (unknown origin) using fluorescently labeled peptide as substrate after 3 hrs by microfluidic mobility shift assay

Sequence of Tyrosine-protein kinase BTK (Q06187 whole entry): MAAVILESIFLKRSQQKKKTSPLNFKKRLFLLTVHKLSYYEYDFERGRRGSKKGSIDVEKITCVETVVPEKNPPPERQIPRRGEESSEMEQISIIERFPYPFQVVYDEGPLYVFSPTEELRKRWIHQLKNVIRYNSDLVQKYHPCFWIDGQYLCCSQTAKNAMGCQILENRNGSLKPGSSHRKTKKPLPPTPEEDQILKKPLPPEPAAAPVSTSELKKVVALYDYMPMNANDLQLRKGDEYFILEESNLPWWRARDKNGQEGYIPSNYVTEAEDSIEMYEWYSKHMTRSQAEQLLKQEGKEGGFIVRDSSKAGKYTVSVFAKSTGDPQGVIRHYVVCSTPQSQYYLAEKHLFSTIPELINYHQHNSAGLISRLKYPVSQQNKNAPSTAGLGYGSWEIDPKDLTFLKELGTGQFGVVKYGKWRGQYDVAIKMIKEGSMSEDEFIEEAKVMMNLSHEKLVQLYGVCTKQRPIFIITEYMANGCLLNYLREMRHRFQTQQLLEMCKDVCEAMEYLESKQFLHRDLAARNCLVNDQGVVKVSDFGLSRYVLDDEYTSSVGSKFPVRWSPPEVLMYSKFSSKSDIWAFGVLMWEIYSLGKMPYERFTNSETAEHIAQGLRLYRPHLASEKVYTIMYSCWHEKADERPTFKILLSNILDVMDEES

IC50 | Compound
4.4 nM | C=CC(=O)N1CC[C@]2(C1)C[C@H](n1c(NC(=O)c3ccc(C(F)F)s3)nc3cc(CN[C@@H](C)C(C)(C)C)ccc31)C2
0.63 nM | C=CC(=O)N1CC[C@]2(C1)C[C@H](n1c(NC(=O)c3ccc(-c4ccnc(N)c4)s3)nc3ccccc31)C2
0.62 nM | C=CC(=O)N1CC[C@]2(C1)C[C@H](n1c(NC(=O)c3ccc(-c4cnco4)s3)nc3cc(NC)ccc31)C2
